# Test results: patent US20200164072A1, “NANOCOMPLEXES FOR REMOTELY-TRIGGERED GUEST MOLECULE RELEASE AND METHODS FOR FABRICATING THE SAME” (William Marsh Rice University, priority 2018, published 2020)
# How the values were obtained:
# Test in all cases: LDH cytotoxicity assay after light-triggered release
# Type in all cases: cell-based
# [1] = system: MDA-MB-231 breast cancer cells; conditions: pulsed laser-induced release (25 mW, 160 fs, 2 min) from NS@DNA1@DTX, FIG. 7A; 24 h
# Protocol: (§1) Cellular cytotoxicity resulting from light-triggered release of DTX and LAP from both dsDNA and HSA nanohost molecules was evaluated. Cells were irradiated, according to one or more embodiments, with either a CW laser imparting 1.5 W of power or with a pulsed-laser using a Ti:Sapphire tunable laser operating at 250 kHz with an average power of 25 mW and 160-fs pulsed-laser power for 2 min.
# (§2) After the guest molecules were released, each sample was treated at 37° C., 5% CO2 for a treatment period of 24 h to allow time for the released drug guest molecules to interact with the cells. Cell death was evaluated with a lactate dehydrogenase (LDH) cytotoxicity assay. Percent cytotoxicity values were calculated considering 10% cell death in the control experiment, NS @host with no laser treatment.
# [2] = system: SKBR3 breast cancer cells; conditions: released LAP; HER2 expressing breast cancer cells vs noncancerous cells
# Protocol: as §1, §2
# (§3) LAP was released from both an NS @DNA nanohost control and an NS @HSA nanohost in both SKBR3 breast cancer cells and RAW 264.7 macrophage cells.
# [3] = system: RAW 264.7 macrophage cells; conditions: macrophages lack the HER2 receptor
# Protocol: as §1, §2, §3
Structure (SMILES),cell death (LDH) [1],selectivity of cell death [2],cytotoxicity in macrophages [3]
"CC(=O)O[C@@]12CO[C@@H]1C[C@H](O)[C@@]1(C)C(=O)[C@H](O)C3=C(C)[C@@H](OC(=O)[C@H](O)[C@@H](NC(=O)OC(C)(C)C)c4ccccc4)C[C@@](O)([C@@H](OC(=O)c4ccccc4)[C@H]21)C3(C)C [DTX, docetaxel]",No increased cell death,,
"CS(=O)(=O)CCNCc1ccc(-c2ccc3ncnc(Nc4ccc(OCc5cccc(F)c5)c(Cl)c4)c3c2)o1 [LAP, lapatinib]",,"selectively induces cell death in HER2 expressing breast cancer cells, without affecting noncancerous cells",does not cause cytotoxicity
